Molecules are shown by their SMILES.

From US9777005B2 (Takeda Pharmaceutical Company Limited, priority 2012, dated 2017) come the findings set out here.

The target of this test is T1, human M1 receptor (hCHRM1) (Homo sapiens, UniProt P11229).
T1 construct: expressed in transfected cells; host or cells: CHO-K1
T1 sequence (P11229 1-460): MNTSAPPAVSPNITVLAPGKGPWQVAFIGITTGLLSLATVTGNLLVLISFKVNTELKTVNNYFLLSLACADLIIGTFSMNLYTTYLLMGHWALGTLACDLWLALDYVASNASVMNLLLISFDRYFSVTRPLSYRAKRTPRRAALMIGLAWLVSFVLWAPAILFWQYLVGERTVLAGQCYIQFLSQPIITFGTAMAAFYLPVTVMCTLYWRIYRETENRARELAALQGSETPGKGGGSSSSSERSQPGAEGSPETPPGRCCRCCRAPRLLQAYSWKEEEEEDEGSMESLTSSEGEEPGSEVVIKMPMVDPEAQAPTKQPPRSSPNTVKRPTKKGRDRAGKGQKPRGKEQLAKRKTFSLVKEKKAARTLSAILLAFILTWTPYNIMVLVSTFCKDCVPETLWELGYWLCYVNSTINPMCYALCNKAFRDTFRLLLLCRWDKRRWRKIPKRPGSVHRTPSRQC
Kind of test: Measurement of M1 receptor positive allosteric modulator (M1PAM) activity, calcium fluorescence (FLIPRtetra) in CHO-K1 cells in the presence of acetylcholine at EC20. The test is classed as cell-based. Conditions: in the presence of acetylcholine at EC20 (final 0.6 nM), CHO-K1 cells expressing hCHRM1; for EC50: inflection point of M1PAM activity, read-out: IP value; for activity (%) at 10 μM: test compound 10 μM. An outline of the steps:
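CHO-K1 cells expressing human M1 were loaded with Fluo-4 AM, and compound was added with acetylcholine at EC20 (final 0.6 nM). Calcium fluorescence was read on FLIPRtetra for 1 min. Activity was normalized to 1 μM acetylcholine (100%) and DMSO (0%), and the curve inflection point was reported as IP.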

As to `Cc1nn(C)cc1-c1ccc(CN2Cc3ccnc(OCc4ccccc4F)c3C2=O)c(F)c1` [Example 343, 2-(4-(1,3-dimethyl-1H-pyrazol-4-yl)-2-fluorobenzyl)-4-((2-fluorobenzyl)oxy)-1,2-dihydro-3H-pyrrolo[3,4-c]pyridin-3-one], the EC50 is 29 nM and the “activity (%) at 10 μM” value is recorded as 94%.

In the case of `Cc1cc(-c2ccc(CN3Cc4ccnc(OCc5ccccc5F)c4C3=O)c(F)c2)cnn1` [Example 344, 4-((2-fluorobenzyl)oxy)-2-(2-fluoro-4-(6-methylpyridazin-4-yl)benzyl)-1,2-dihydro-3H-pyrrolo[3,4-c]pyridin-3-one], the EC50 amounted to 55 nM and the “activity (%) at 10 μM” value is reported as 97%.

On to `Cc1nn(C)cc1-c1ccc(CN2Cc3ccnc(OC4CCc5cccnc54)c3C2=O)c(F)c1` (centres unmarked) [Example 346, 4-(6,7-dihydro-5H-cyclopenta[b]pyridin-7-yloxy)-2-(4-(1,3-dimethyl-1H-pyrazol-4-yl)-2-fluorobenzyl)-1,2-dihydro-3H-pyrrolo[3,4-c]pyridin-3-one], for which the EC50 amounted to 2.1 nM and the “activity (%) at 10 μM” value is recorded as 85%.

In the case of `Cc1nn(C)cc1-c1ccc(CN2Cc3ccnc(OCC(F)(F)c4ccccn4)c3C2=O)c(F)c1` [Example 347, 4-(2,2-difluoro-2-(pyridin-2-yl)ethoxy)-2-(4-(1,3-dimethyl-1H-pyrazol-4-yl)-2-fluorobenzyl)-1,2-dihydro-3H-pyrrolo[3,4-c]pyridin-3-one], the EC50 is 10 nM and the “activity (%) at 10 μM” value worked out at 97%.

On to `Cn1cc(-c2ccc(CN3Cc4ccnc(OC5CCC5)c4C3=O)cc2)cn1` [Example 348, 4-(cyclobutyloxy)-2-(4-(1-methyl-1H-pyrazol-4-yl)benzyl)-1,2-dihydro-3H-pyrrolo[3,4-c]pyridin-3-one], for which the EC50 amounted to 74 nM and the “activity (%) at 10 μM” value was determined as 97%.

Turning to `Cn1cc(-c2ccc(CN3Cc4ccnc(OC5c6ncccc6CC5(C)C)c4C3=O)cc2)cn1` (centres unmarked) [Example 349, 4-((6,6-dimethyl-6,7-dihydro-5H-cyclopenta[b]pyridin-7-yl)oxy)-2-(4-(1-methyl-1H-pyrazol-4-yl)benzyl)-1,2-dihydro-3H-pyrrolo[3,4-c]pyridin-3-one], the EC50 came out at 12 nM and the “activity (%) at 10 μM” value stood at 104%.

In the case of `Cc1cc(-c2ccc(CN3Cc4cccc(OCC5CCCO5)c4C3=O)cc2)ccn1.Cl` (centres unmarked) [Example 353, 2-(4-(2-methylpyridin-4-yl)benzyl)-7-((tetrahydrofuran-2-yl)methoxy)isoindolin-1-one hydrochloride], the EC50 is 46 nM and the “activity (%) at 10 μM” value is reported as 97%.

For `Cc1nn(C)cc1-c1ccc(CN2Cc3cccc(OCC45CCC(CC4)O5)c3C2=O)cc1` [Example 354, 2-(4-(1,3-dimethyl-1H-pyrazol-4-yl)benzyl)-7-((7-oxabicyclo[2.2.1]hept-1-yl)methoxy)isoindolin-1-one], the EC50 amounted to 270 nM and the “activity (%) at 10 μM” value is 93%.

`Cc1cc(-c2ccc(CN3Cc4cccc(OCC5CCCO5)c4C3=O)cc2)cnn1` (centres unmarked) [Example 356, 2-(4-(6-methylpyridazin-4-yl)benzyl)-7-((tetrahydrofuran-2-yl)methoxy)isoindolin-1-one]: the EC50 was 49 nM and the “activity (%) at 10 μM” value worked out at 101%.

For `COc1cccc(F)c1Oc1nccc2c1C(=O)N(Cc1ccc(-c3cn(C)nc3C)cc1)C2` [Example 357, 2-(4-(1,3-dimethyl-1H-pyrazol-4-yl)benzyl)-4-(2-fluoro-6-methoxyphenoxy)-1,2-dihydro-3H-pyrrolo[3,4-c]pyridin-3-one], the EC50 is 51 nM and the “activity (%) at 10 μM” value came to 90%.

For `Cc1cc(-c2ccc(CN3Cc4ccnc(Oc5c(C)cc(F)cc5F)c4C3=O)cc2)cnn1` [Example 358, 4-(2,4-difluoro-6-methylphenoxy)-2-(4-(6-methylpyridazin-4-yl)benzyl)-1,2-dihydro-3H-pyrrolo[3,4-c]pyridin-3-one], the EC50 was 77 nM and the “activity (%) at 10 μM” value turned out to be 91%.

On to `Cc1cc(F)cc(F)c1Oc1nccc2c1C(=O)N(Cc1ccc(-c3ccn(C)n3)cc1)C2` [Example 359, 4-(2,4-difluoro-6-methylphenoxy)-2-(4-(1-methyl-1H-pyrazol-3-yl)benzyl)-1,2-dihydro-3H-pyrrolo[3,4-c]pyridin-3-one], for which the EC50 worked out at 93 nM and the “activity (%) at 10 μM” value was 96%.

As to `COc1cccc(F)c1Oc1nccc2c1C(=O)N(Cc1ccc(-c3cnn(C)c3)cc1)C2` [Example 360, 4-(2-fluoro-6-methoxyphenoxy)-2-(4-(1-methyl-1H-pyrazol-4-yl)benzyl)-1,2-dihydro-3H-pyrrolo[3,4-c]pyridin-3-one], the EC50 stood at 72 nM and the “activity (%) at 10 μM” value amounted to 105%.

Regarding `Cc1cc(-c2ccc(CN3Cc4ccnc(Oc5c(F)cc(F)cc5C5CC5)c4C3=O)cc2)cnn1` [Example 361, 4-(2-cyclopropyl-4,6-difluorophenoxy)-2-(4-(6-methylpyridazin-4-yl)benzyl)-1,2-dihydro-3H-pyrrolo[3,4-c]pyridin-3-one], the EC50 is 76 nM and the “activity (%) at 10 μM” value is given as 100%.

In the case of `Cn1cc(-c2ccc(CN3Cc4ccnc(Oc5ccc(OC(F)(F)F)cc5F)c4C3=O)cc2)cn1` [Example 362, 4-(2-fluoro-4-(trifluoromethoxy)phenoxy)-2-(4-(1-methyl-1H-pyrazol-4-yl)benzyl)-1,2-dihydro-3H-pyrrolo[3,4-c]pyridin-3-one], the EC50 amounted to 30 nM and the “activity (%) at 10 μM” value came to 98%.

Turning to `Cn1cc(-c2ccc(CN3Cc4ccnc(Oc5ccc(OC(F)(F)F)cc5C#N)c4C3=O)cc2)cn1` [Example 363, 2-((2-(4-(1-methyl-1H-pyrazol-4-yl)benzyl)-3-oxo-2,3-dihydro-1H-pyrrolo[3,4-c]pyridin-4-yl)oxy)-5-(trifluoromethoxy)benzonitrile], the EC50 was 6.6 nM and the “activity (%) at 10 μM” value is 94%.

`N#Cc1cc(F)c(Oc2cccc3c2C(=O)N(Cc2ccc(-n4cccn4)cc2)C3)c(F)c1` [Example 364, 3,5-difluoro-4-((3-oxo-2-(4-(1H-pyrazol-1-yl)benzyl)-2,3-dihydro-1H-isoindol-4-yl)oxy)benzonitrile]: the EC50 came out at 31 nM and the “activity (%) at 10 μM” value was determined as 86%.

For the molecule `Cn1ccc(-c2ccc(CN3Cc4ccnc(Oc5c(F)cc(F)cc5F)c4C3=O)cc2)n1` [Example 365, 2-(4-(1-methyl-1H-pyrazol-3-yl)benzyl)-4-(2,4,6-trifluorophenoxy)-1H-pyrrolo[3,4-c]pyridin-3(2H)-one], the EC50 was determined as 44 nM and the “activity (%) at 10 μM” value came out at 104%.

As for `Cn1ccc(-c2ccc(CN3Cc4ncnc(Oc5c(F)cc(F)cc5F)c4C3=O)cc2)n1` [Example 366, 6-(4-(1-methyl-1H-pyrazol-3-yl)benzyl)-4-(2,4,6-trifluorophenoxy)-6,7-dihydro-5H-pyrrolo[3,4-d]pyrimidin-5-one], the EC50 was found to be 42 nM and the “activity (%) at 10 μM” value came to 104%.

Regarding `Cc1cc(-c2ccc(CN3Cc4ncnc(Oc5c(F)cc(F)cc5F)c4C3=O)cc2)ccn1` [Example 367, 6-(4-(2-methylpyridin-4-yl)benzyl)-4-(2,4,6-trifluorophenoxy)-6,7-dihydro-5H-pyrrolo[3,4-d]pyrimidin-5-one], the EC50 was determined as 28 nM and the “activity (%) at 10 μM” value came out at 101%.

In the case of `Cc1cc(-c2ccc(CN3Cc4ccnc(Oc5ccc(C#N)cc5F)c4C3=O)cc2)ccn1` [Example 368, 3-fluoro-4-((2-(4-(2-methylpyridin-4-yl)benzyl)-3-oxo-2,3-dihydro-1H-pyrrolo[3,4-c]pyridin-4-yl)oxy)benzonitrile], the EC50 was found to be 10 nM and the “activity (%) at 10 μM” value amounted to 99%.

As to `O=C1c2c(ncnc2Oc2c(F)cc(F)cc2F)CN1Cc1ccc(-c2ccnnc2)cc1` [Example 369, 6-(4-(pyridazin-4-yl)benzyl)-4-(2,4,6-trifluorophenoxy)-6,7-dihydro-5H-pyrrolo[3,4-d]pyrimidin-5-one], the EC50 is 54 nM and the “activity (%) at 10 μM” value worked out at 103%.

For `Cn1cc(-c2ccc(CN3Cc4ncnc(Oc5c(F)cc(F)cc5F)c4C3=O)cc2)nn1` [Example 370, 6-(4-(1-methyl-1H-1,2,3-triazol-4-yl)benzyl)-4-(2,4,6-trifluorophenoxy)-6,7-dihydro-5H-pyrrolo[3,4-d]pyrimidin-5-one], the EC50 turned out to be 14 nM and the “activity (%) at 10 μM” value is on record as 97%.

`Cn1ccc(-c2ccc(CN3Cc4ncnc(Oc5ccc(C#N)cc5F)c4C3=O)cc2)n1` [Example 371, 3-fluoro-4-((6-(4-(1-methyl-1H-pyrazol-3-yl)benzyl)-5-oxo-6,7-dihydro-5H-pyrrolo[3,4-d]pyrimidin-4-yl)oxy)benzonitrile]: the EC50 amounted to 13 nM and the “activity (%) at 10 μM” value is given as 99%.

For `Cc1nn(C)cc1-c1ccc(CN2Cc3ncnc(Oc4c(F)cccc4F)c3C2=O)c(F)c1` [Example 372, 4-(2,6-difluorophenoxy)-6-(4-(1,3-dimethyl-1H-pyrazol-4-yl)-2-fluorobenzyl)-6,7-dihydro-5H-pyrrolo[3,4-d]pyrimidin-5-one], the EC50 is 46 nM and the “activity (%) at 10 μM” value is 109%.
